In experiment [1] the target is T1, Inhibitor of nuclear factor kappa-B kinase subunit epsilon (Homo sapiens) (UniProt Q14164).
T1 sequence (whole entry): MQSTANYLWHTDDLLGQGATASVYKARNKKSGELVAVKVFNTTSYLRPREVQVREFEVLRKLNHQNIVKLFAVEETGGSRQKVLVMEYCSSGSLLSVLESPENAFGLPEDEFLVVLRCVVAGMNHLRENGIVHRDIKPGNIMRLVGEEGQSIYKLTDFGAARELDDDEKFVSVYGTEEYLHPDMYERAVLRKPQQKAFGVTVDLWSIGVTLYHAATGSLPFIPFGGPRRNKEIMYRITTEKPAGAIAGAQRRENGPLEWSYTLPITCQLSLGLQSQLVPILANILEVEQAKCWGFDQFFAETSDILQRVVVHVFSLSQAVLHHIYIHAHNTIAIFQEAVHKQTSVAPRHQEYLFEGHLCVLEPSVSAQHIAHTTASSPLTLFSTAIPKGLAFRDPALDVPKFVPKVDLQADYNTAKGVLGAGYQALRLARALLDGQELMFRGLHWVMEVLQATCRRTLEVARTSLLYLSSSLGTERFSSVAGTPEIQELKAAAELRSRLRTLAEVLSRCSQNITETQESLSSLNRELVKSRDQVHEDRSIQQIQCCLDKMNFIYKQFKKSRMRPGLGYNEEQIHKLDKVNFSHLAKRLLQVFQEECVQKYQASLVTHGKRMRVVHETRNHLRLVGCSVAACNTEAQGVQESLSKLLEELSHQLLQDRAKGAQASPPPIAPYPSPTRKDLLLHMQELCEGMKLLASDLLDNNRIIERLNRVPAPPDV
The experiment can be described thus: Selectivity interaction (Kinase panel (KiNativ target engagement assay in Jurkat cells)) EUB0001635a IKBKE. In kind it is cell-based. Conditions: at 1 µM.

The test system of experiment [2] is Fibroblast growth factor receptor 3 (Homo sapiens), P22607 [G697C]. The experiment can be described thus: (§1) Selectivity interaction (Ambit KINOMEscan and KiNATiv profiling in Jurkat cells) EUB0000090b FGFR3. The class given is cell-based. Conditions: at 1 µM.
For experiment [3], the target named is Fibroblast growth factor receptor 3 (Homo sapiens, UniProt P22607). The experiment is described as §1. The class given is cell-based. Conditions: at 1 µM.
Experiment [4] deals with Macrophage-stimulating protein receptor (Homo sapiens, UniProt Q04912). Briefly: Selectivity interaction (SelectScreen profiling (Invitrogen)) EUB0000607a MST1R. Conditions: at 2 µM.
Experiment [5] has as its target Dual specificity protein kinase CLK1 (Homo sapiens, UniProt P49759). Briefly: Selectivity interaction (KinomeScan (DiscoverX)) EUB0000666a CLK1. Conditions: at 10 µM.
The target in experiment [6] is Sphingosine kinase 1 (Homo sapiens) (UniProt Q9NYA1). Briefly: Selectivity interaction (Kinase panel (Invitrogen)) EUB0000639a SPHK1. Conditions: at 200 nM.
Experiment [7] has as its target Tyrosine-protein kinase FRK (Homo sapiens) (UniProt P42685). Briefly: Selectivity interaction (KinomeScan (DiscoverX)) EUB0001049a FRK. Conditions: at 1 µM.
Experiment [8] addresses T2, Bromodomain and PHD finger-containing protein 3 (Homo sapiens) (UniProt Q9ULD4).
T2 sequence (whole entry): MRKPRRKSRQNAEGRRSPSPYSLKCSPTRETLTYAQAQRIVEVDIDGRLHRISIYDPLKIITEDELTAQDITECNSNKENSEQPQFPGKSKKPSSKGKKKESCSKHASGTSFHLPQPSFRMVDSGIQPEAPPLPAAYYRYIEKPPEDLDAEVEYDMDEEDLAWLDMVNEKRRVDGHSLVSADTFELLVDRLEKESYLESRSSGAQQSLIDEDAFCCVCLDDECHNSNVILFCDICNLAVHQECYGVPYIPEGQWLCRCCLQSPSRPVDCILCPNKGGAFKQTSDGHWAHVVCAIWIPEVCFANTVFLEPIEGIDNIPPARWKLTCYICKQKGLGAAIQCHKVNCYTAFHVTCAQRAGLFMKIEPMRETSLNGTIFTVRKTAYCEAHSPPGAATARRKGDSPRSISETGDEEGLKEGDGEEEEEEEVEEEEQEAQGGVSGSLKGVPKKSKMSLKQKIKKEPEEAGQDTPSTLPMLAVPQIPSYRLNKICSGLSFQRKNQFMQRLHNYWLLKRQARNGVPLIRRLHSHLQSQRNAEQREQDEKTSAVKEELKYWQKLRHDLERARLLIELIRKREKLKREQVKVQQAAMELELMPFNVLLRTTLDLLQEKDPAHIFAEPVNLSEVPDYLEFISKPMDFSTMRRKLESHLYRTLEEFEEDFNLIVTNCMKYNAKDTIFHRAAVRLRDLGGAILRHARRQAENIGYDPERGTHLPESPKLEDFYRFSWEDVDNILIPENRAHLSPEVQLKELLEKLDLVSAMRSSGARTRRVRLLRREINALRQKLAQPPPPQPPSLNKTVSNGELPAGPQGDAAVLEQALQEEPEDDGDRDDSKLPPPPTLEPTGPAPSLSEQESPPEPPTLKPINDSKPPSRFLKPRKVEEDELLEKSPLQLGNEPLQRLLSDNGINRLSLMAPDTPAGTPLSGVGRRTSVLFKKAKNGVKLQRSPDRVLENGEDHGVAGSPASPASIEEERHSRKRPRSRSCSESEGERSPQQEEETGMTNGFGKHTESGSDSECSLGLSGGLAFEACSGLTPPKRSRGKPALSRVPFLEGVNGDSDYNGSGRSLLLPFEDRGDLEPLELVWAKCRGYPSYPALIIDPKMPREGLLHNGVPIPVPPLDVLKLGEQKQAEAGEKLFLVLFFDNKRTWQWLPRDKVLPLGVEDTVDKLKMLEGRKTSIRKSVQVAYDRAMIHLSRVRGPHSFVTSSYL
Briefly: Selectivity interaction (Bromodomain panel (DSF asssay)) EUB0000270b BRPF3.

For experiment [9], the system named is Epidermal growth factor receptor (Homo sapiens), P00533 [L858R,T790M]. Briefly: (§2) Selectivity interaction (KinomeScan (DiscoverX)) EUB0000045b EGFR.
For experiment [10], the system named is Epidermal growth factor receptor (Homo sapiens), P00533 [L861Q]. Described as §2.
The test system of experiment [11] is Epidermal growth factor receptor (Homo sapiens), P00533 [G719S]. The description is as §2.
Experiment [12] has as its system Epidermal growth factor receptor (Homo sapiens), P00533 [L858R]. The experiment is described as §2.
Experiment [13] deals with Epidermal growth factor receptor (Homo sapiens), P00533 [UNDEFINED MUTATION]. The experiment is described as §2.
Experiment [14] concerns the target Epidermal growth factor receptor (Homo sapiens, UniProt P00533). The description is as §2.
Experiment [15] relates to Epidermal growth factor receptor (Homo sapiens), P00533 [T790M]. The description is as §2.
Experiment [16] has as its system Epidermal growth factor receptor (Homo sapiens), P00533 [G719C]. Described as §2.

Consider eight molecules from ChEMBL document CHEMBL5465560, “Selectivity Literature for EUbOPEN Chemogenomic Library” (2024).

Epidermal growth factor receptor (Homo sapiens), P00533 [L858R,T790M], sequence (P00533 whole entry T790M/L858R, looked up): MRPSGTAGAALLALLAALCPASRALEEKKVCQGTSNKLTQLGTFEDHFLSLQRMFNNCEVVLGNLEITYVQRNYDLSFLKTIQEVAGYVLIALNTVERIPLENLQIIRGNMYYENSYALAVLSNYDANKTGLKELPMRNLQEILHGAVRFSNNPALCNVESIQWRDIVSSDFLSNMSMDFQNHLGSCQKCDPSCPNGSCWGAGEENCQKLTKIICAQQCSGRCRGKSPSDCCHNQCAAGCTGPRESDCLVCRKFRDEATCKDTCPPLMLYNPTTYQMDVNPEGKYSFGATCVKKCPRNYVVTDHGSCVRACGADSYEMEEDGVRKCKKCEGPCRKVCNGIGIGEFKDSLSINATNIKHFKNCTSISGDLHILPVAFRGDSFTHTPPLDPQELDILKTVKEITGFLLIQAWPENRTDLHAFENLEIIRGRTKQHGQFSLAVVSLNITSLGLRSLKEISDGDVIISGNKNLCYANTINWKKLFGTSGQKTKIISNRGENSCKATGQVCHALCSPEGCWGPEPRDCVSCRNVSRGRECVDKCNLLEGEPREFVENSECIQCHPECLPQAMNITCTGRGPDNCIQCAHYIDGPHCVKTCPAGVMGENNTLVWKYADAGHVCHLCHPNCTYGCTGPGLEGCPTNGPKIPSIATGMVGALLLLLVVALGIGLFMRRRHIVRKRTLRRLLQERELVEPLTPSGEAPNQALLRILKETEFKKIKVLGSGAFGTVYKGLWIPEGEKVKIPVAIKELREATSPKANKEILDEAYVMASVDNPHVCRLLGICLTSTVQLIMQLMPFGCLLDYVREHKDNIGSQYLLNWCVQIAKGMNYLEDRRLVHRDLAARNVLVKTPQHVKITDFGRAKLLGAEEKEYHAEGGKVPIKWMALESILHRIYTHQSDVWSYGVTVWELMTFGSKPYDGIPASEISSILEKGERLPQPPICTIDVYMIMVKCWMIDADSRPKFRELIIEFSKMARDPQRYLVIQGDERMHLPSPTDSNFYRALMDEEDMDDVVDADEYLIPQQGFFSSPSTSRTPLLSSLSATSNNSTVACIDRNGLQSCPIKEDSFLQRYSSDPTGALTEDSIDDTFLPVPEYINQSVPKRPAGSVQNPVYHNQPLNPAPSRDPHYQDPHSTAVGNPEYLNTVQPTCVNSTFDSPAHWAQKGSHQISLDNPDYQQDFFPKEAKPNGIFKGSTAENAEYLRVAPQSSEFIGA
Epidermal growth factor receptor (Homo sapiens), P00533 [T790M], sequence (P00533 whole entry T790M): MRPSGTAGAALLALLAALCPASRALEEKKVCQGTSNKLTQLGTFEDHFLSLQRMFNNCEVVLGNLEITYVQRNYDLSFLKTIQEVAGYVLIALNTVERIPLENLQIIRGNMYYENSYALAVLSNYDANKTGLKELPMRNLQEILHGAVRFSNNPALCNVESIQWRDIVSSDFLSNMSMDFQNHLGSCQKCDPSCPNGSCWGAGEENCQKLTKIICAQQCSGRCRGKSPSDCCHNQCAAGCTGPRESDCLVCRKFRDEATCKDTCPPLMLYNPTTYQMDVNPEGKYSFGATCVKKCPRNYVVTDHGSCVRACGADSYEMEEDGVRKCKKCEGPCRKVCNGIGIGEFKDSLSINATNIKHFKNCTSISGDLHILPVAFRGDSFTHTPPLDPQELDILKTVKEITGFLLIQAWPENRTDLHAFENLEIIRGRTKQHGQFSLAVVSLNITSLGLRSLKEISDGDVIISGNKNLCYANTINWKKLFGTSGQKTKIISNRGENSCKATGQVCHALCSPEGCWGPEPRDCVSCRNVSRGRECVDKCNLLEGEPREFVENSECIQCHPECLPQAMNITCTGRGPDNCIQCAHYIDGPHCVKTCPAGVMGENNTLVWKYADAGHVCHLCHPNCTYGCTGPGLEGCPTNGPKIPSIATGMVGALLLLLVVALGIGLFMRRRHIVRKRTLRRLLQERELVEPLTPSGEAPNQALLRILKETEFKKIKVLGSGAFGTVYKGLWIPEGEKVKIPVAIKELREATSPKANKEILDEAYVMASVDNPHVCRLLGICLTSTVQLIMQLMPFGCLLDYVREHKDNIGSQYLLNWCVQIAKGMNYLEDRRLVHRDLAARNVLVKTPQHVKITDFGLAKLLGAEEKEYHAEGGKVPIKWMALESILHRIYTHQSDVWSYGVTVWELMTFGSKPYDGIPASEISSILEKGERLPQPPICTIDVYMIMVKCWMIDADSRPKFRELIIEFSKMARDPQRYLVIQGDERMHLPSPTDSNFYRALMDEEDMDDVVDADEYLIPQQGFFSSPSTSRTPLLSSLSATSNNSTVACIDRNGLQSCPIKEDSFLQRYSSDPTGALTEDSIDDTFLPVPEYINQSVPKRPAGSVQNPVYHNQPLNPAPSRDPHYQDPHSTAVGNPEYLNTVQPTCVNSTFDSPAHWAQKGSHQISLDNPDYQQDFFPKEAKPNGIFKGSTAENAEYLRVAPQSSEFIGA
Epidermal growth factor receptor (Homo sapiens), P00533 [L861Q], sequence (P00533 whole entry L861Q): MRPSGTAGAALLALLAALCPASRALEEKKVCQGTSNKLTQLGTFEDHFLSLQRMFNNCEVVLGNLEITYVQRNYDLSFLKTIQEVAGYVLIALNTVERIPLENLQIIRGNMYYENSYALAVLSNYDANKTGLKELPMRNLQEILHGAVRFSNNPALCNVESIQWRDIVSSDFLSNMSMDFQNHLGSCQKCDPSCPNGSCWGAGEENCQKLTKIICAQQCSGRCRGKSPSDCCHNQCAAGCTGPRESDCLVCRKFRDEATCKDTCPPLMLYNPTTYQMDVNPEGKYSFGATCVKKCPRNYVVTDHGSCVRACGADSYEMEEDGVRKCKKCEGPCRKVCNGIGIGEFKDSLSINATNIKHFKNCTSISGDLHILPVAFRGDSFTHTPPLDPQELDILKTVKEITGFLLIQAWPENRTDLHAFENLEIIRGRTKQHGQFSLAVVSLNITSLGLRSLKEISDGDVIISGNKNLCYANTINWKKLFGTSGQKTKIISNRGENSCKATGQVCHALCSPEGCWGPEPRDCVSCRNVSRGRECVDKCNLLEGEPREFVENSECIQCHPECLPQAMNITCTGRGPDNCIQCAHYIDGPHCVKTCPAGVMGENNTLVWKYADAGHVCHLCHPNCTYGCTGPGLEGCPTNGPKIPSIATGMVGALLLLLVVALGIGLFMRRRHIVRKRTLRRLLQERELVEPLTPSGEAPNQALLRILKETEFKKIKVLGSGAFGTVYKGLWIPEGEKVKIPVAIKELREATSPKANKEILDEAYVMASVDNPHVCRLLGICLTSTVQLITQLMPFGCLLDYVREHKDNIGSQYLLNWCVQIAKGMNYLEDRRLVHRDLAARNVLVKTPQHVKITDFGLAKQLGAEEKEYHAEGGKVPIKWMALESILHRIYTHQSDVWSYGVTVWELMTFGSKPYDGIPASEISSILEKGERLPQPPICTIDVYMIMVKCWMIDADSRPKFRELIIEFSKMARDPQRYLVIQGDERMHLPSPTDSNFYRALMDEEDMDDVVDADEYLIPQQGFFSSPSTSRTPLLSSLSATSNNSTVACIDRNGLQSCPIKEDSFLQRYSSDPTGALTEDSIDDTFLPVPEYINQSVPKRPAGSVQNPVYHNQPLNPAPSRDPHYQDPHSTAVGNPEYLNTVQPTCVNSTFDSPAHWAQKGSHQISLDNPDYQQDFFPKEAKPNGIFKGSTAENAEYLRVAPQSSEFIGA
Epidermal growth factor receptor (Homo sapiens), P00533 [G719C], sequence (P00533 whole entry G719C): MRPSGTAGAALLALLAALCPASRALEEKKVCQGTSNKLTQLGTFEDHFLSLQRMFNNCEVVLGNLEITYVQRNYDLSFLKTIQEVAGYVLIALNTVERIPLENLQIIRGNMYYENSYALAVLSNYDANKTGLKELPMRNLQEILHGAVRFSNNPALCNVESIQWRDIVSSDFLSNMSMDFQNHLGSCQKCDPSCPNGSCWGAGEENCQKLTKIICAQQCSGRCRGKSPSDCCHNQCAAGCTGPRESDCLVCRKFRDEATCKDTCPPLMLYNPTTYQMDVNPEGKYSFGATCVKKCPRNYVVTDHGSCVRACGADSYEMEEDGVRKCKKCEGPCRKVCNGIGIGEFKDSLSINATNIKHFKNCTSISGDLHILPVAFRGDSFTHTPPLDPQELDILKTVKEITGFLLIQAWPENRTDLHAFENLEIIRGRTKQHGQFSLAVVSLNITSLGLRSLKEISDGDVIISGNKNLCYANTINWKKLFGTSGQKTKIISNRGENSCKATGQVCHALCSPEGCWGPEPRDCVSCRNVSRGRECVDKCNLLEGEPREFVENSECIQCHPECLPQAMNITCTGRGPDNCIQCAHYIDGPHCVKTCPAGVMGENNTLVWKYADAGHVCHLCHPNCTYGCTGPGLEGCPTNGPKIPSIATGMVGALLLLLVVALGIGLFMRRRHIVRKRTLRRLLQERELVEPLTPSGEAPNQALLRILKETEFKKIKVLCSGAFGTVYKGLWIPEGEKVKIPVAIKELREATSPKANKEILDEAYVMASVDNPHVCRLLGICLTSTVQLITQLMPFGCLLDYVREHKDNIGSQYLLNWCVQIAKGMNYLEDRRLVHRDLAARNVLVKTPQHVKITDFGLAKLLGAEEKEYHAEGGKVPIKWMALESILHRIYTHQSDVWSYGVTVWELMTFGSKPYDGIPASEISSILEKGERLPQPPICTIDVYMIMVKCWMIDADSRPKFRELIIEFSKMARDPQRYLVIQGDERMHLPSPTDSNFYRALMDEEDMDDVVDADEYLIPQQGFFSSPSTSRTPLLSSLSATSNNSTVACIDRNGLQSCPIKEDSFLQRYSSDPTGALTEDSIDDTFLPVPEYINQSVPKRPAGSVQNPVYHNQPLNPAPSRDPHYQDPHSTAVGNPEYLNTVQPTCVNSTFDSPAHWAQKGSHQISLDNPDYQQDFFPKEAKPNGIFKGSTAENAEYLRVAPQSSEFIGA

`C=CC(=O)Nc1ccc(C(=O)Nc2[nH]nc3c2CN(C(=O)N[C@H](CN(C)C)c2ccccc2)C3(C)C)cc1`: the % of engagement in experiment [1] (Selectivity number of off-targets 0.0, Selectivity number of targets 233.0, Source Knowledge https://www.sciencedirect.com/science/article/pii/S2451945619300674?via%3Dihub) turned out to be 28.4%; in [1] it was 32.7%.
`CN(C)C/C=C/C(=O)Nc1ccc(C(=O)N2CCCC(Nc3ncc(Cl)c(-c4c[nH]c5ccccc45)n3)C2)cc1` (stereo not given): the values for the % of control in experiment [2] and in [3] were 72% and 92%, respectively.
In the case of `CNC(=O)Nc1ccc(-c2nc(N3CC4CCC(C3)O4)c3cnn(C4CCC5(CC4)OCCO5)c3n2)cc1`, the % of inhibition in experiment [4] is -1%.
In [5], `O=C(NOC[C@H](O)CO)c1ccc(F)c(F)c1Nc1ccc(I)cc1F` registered a % of control of 95%.
Turning to `CC[C@@H]1[C@H](F)C(=O)N[C@@H]1COc1nccc2cc(C(N)=O)c(OC)cc12` [ZIMLOVISERTIB], in experiment [6], the % of inhibition stood at 2.77%.
As to `COc1cc(Nc2nc(C)cc(-c3cnn4nc(OC)ccc34)n2)cc(C(F)(F)F)c1`, the % of control in [7] worked out at 100%.
The molecule `Cc1cc(CN)cc(C)c1-c1ncn(C)c1-c1cncn1C` returned a dTM in experiment [8] of -2.18 K.
Regarding `C=CC(=O)Nc1cc(-n2c(=O)ccc3cnc4ccc(-c5ccc(NS(C)(=O)=O)cc5)cc4c32)ccc1C`, the % of control is 100% in experiment [9] (at 1 µM); 44% in experiment [9] (at 10 µM); 40% in experiment [10] (at 1 µM); 45% in experiment [10] (at 10 µM); 90% in experiment [11] (at 1 µM); 85% in [11] (at 10 µM). Further, the % of control in experiment [12] (at 1 µM) amounted to 95%; in [12] (at 10 µM), 50%; in [13] (at 1 µM) it was 100%; in experiment [13] (at 10 µM) it was 32%; in experiment [14] (at 1 µM), 82%; in experiment [14] (at 10 µM) it was 25%. Moreover, the % of control in experiment [15] (at 1 µM) worked out at 11%; in experiment [15] (at 10 µM), 2.1%; in experiment [16] (at 1 µM), 73%; in experiment [16] (at 10 µM) it was 90%.
